# Reference: patent US20260355212A1 (priority 2022, published 2026)
# Experiments:
# HCoV-NL63 Mpro = HCoV-NL63 Mpro (Human coronavirus NL63, UniProt P0C6X5); assay: HCoV-NL63 Mpro enzymatic inhibition assay (fluorescence); assay type: biochemical
# Protocol: (§1) The hCoV Mpro are cloned, expressed in E. coli and purified by WuXi AppTec Co., Ltd. The substrate are synthesized by Genscript Biotech.
# (§2) Compounds are 3 fold serially diluted for 10 doses and added to an assay plate (384w format) using ECHO, in duplicate wells. The test concentration of test compounds is defined by sponsor. […] For no inhibition control (ZPE, zero percent effect), DMSO is added.
# (§3) 25 μL of Mpro proteins are added to the assay plates containing compounds, respectively, using Multidrop. The compounds and Mpro proteins are pre-incubated at room temperature for 30 min. Then 5 µL of Mpro substrates are added to the related assay plates, respectively. Each activity testing point has a relevant background control to normalize the fluorescence interference of compound.
# (§4) After 60 min incubation at 30° C., the fluorescence signal (RFU) is detected using a microplate reader M2e (SpectraMax) at Ex/Em=340 nm/490 nm.
# (§5) The inhibition activity is calculated using the formula below, IC50 values will be calculated using the Inhibition % data.
# (§6) Inhibition %=[(CPD−BGCPD)−(ZPE−BGZPE)/(HPE−BGHPE)−(ZPE−BGZPE)]×[…] • CPD: Signal of test compounds wells, containing compound+enzyme+substrate. • ZPE: Average of signals of zero percent effective control wells, containing enzyme+substrate, no compound. • HPE: Average of signals of hundred percent effect control wells, containing GC376+enzyme+substrate. • BG: Compound background control wells, containing compound+substrate, no enzyme
# (§7) IC50 values of compounds are calculated with the GraphPad Prism software using the nonlinear regression model of log(inhibitor) vs. response—Variable slope (four parameters).
# SARS-CoV-1 Mpro = SARS-CoV-1 Mpro (Severe acute respiratory syndrome coronavirus, UniProt P0C6X7); assay: biochemical
# HCoV-HKU1 Mpro = HCoV-HKU1 Mpro (Human coronavirus HKU1, UniProt P0C6X2); assay: HCoV-HKU1 Mpro enzymatic inhibition assay (fluorescence); assay type: biochemical
# HCoV-HKU1 Mpro, sequence (P0C6X2 3335-3637 limits assumed): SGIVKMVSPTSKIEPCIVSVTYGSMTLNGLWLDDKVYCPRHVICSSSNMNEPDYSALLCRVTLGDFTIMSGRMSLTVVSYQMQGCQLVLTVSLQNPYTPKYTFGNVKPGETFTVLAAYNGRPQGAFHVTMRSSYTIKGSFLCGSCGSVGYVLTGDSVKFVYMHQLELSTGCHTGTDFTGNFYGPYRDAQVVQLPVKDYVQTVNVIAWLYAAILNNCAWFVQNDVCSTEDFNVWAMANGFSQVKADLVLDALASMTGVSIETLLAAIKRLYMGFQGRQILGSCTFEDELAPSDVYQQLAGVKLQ
# Protocol: as §1, §2, §3, §4, §5, §6, §7
# HCoV-229E Mpro = HCoV-229E Mpro (Human coronavirus 229E, UniProt P0C6X1); assay: HCoV-229E Mpro enzymatic inhibition assay (fluorescence); assay type: biochemical
# HCoV-229E Mpro, sequence (P0C6X1 2966-3267 limits assumed): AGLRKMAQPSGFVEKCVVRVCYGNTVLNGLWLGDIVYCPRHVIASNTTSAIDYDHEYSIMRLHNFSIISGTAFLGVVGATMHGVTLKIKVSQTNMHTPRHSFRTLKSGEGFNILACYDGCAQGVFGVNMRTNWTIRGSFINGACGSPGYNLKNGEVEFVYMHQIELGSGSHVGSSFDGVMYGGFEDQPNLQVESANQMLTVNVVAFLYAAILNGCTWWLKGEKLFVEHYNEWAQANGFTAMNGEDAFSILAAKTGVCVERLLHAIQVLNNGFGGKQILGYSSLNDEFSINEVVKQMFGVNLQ
# Protocol: as §1, §2, §3, §4, §5, §6, §7
# SARS-CoV-2 Mpro = SARS-CoV-2 Mpro (Severe acute respiratory syndrome coronavirus 2, UniProt P0DTD1); assay: SARS-CoV-2 Mpro enzymatic inhibition assay (fluorescence); assay type: biochemical
# Protocol: as §1
# Compounds are 3 fold serially diluted for 10 doses and added to an assay plate (384w format) using ECHO, in duplicate wells. The test concentration of test compounds is defined by sponsor.
# 25 μL of Mpro proteins are added to the assay plates containing compounds, respectively, using Multidrop. The compounds and Mpro proteins are pre-incubated at room temperature for 30 min. Then 5 µL of Mpro substrates are added to the related assay plates, respectively.
# as §4, §5, §7
# HCoV-OC43 Mpro = HCoV-OC43 Mpro (Human coronavirus OC43, UniProt P0C6X6); assay: HCoV-OC43 Mpro enzymatic inhibition assay (fluorescence); assay type: biochemical
# HCoV-OC43 Mpro, sequence (P0C6X6 3247-3549 limits assumed): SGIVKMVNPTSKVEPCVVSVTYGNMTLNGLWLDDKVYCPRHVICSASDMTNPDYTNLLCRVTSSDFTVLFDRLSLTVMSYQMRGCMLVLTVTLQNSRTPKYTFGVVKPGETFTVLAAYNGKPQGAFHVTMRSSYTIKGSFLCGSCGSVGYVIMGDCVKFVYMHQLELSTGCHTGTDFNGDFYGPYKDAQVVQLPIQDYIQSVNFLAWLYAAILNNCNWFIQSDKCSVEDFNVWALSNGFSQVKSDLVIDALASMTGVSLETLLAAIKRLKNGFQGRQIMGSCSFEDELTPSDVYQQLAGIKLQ
# Protocol: as §1, §2, §3, §4, §5, §6, §7
# MERS Mpro = MERS Mpro (Middle East respiratory syndrome-related coronavirus, UniProt K9N7C7); assay: biochemical; parameters: species or system MERS-CoV
# MERS Mpro, sequence (K9N7C7 3248-3553 limits assumed): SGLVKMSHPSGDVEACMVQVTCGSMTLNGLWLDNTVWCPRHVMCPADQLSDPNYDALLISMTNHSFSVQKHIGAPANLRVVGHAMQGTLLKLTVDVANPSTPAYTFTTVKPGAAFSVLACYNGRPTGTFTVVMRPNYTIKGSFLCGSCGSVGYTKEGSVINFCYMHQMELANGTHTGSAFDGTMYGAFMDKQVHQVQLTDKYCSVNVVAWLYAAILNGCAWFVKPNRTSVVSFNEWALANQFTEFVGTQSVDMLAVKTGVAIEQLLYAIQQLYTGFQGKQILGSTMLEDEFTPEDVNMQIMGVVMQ
# HCoV-NL63 Mpro, sequence (P0C6X5 2940-3242 limits assumed): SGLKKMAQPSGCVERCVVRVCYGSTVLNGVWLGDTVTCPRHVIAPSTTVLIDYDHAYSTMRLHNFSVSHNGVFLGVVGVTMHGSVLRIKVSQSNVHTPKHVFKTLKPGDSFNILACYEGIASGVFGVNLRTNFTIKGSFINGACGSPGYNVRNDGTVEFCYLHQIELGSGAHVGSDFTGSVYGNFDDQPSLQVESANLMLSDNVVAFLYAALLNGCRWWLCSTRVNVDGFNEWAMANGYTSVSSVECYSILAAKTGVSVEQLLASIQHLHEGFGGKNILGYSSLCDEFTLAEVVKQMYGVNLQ
Structure (SMILES),IC50 (HCoV-NL63 Mpro) [nM],IC50 (SARS-CoV-1 Mpro) [nM],IC50 (HCoV-HKU1 Mpro) [nM],IC50 (HCoV-229E Mpro) [nM],IC50 (SARS-CoV-2 Mpro) [nM],IC50 (HCoV-OC43 Mpro) [nM],IC50 (MERS Mpro) [nM]
"O=C[C@H](C[C@@H]1CCNC1=O)NC(=O)[C@@H]1CC2(CCC2)CN1C(=O)c1cc2ccccc2[nH]1 [Compound 10, (S)-6-(1H-indole-2-carbonyl)-N—((S)-1-oxo-3-((S)-2-oxopyrrolidin-3-yl)propan-2-yl)-6-azaspiro[3.4]octane-7-carboxamide]",45,45.3,17.7,32.3,12.3,35.8,194
"CC1(C)[C@@H]2[C@@H](C(=O)N[C@H](C=O)C[C@@H]3CCCNC3=O)N(C(=O)c3cc4ccccc4[nH]3)C[C@@H]21 [Compound 11, (1R,2S,5S)-3-(1H-indole-2-carbonyl)-6,6-dimethyl-N—((S)-1-oxo-3-((S)-2-oxopiperidin-3-yl)propan-2-yl)-3-azabicyclo[3.1.0]hexane-2-carboxamide]",50.6,38.4,40,37.2,13.2,34.1,230
"CC1(C)[C@@H]2[C@@H](C(=O)N[C@H](C=O)C[C@@H]3CCNC3=O)N(C(=O)c3cc4c(F)ccc(F)c4[nH]3)C[C@@H]21 [Compound 13, (1R,2S,5S)-3-(4,7-difluoro-1H-indole-2-carbonyl)-6,6-dimethyl-N—((S)-1-oxo-3-((S)-2-oxopyrrolidin-3-yl)propan-2-yl)-3-azabicyclo[3.1.0]hexane-2-carboxamide]",76.3,37.7,38.2,48.1,14,69,372
"CCc1cccc2[nH]c(C(=O)N3C[C@H]4[C@@H]([C@H]3C(=O)N[C@H](C=O)C[C@@H]3CCNC3=O)C4(C)C)cc12 [Compound 14, (1R,2S,5S)-3-(4-ethyl-1H-indole-2-carbonyl)-6,6-dimethyl-N—((S)-1-oxo-3-((S)-2-oxopyrrolidin-3-yl)propan-2-yl)-3-azabicyclo[3.1.0]hexane-2-carboxamide]",49.3,52,22.2,39.6,14.5,39.4,322
"CC1(C)[C@@H]2[C@@H](C(=O)N[C@H](C=O)C[C@@H]3CCNC3=O)N(C(=O)c3cc4c(F)cccc4[nH]3)C[C@@H]21 [Compound 15, (1R,2S,5S)-3-(4-fluoro-1H-indole-2-carbonyl)-6,6-dimethyl-N—((S)-1-oxo-3-((S)-2-oxopyrrolidin-3-yl)propan-2-yl)-3-azabicyclo[3.1.0]hexane-2-carboxamide]",44.5,32.7,24.2,39.7,14.5,32.8,175
"CC1(C)[C@@H]2[C@@H](C(=O)N[C@H](C=O)C[C@@H]3CCNC3=O)N(C(=O)CC3CCC(F)(F)CC3)C[C@@H]21 [Compound 16, (1R,2S,5S)-3-(2-(4,4-difluorocyclohexyl)acetyl)-6,6-dimethyl-N—((S)-1-oxo-3-((S)-2-oxopyrrolidin-3-yl)propan-2-yl)-3-azabicyclo[3.1.0]hexane-2-carboxamide]",28.9,23.5,12.5,24.9,14.6,30.5,157
"CC1(C)[C@@H]2[C@@H](C(=O)N[C@H](C=O)C[C@@H]3CCNC3=O)N(C(=O)C3(c4ccccc4)CCCC3)C[C@@H]21 [Compound 17, (1R,2S,5S)-6,6-dimethyl-N—((S)-1-oxo-3-((S)-2-oxopyrrolidin-3-yl)propan-2-yl)-3-(1-phenylcyclopentanecarbonyl)-3-azabicyclo[3.1.0]hexane-2-carboxamide]",180,27.8,23.7,48.4,15.2,59.8,276
